Earlier results on one substance are cited in patent publication US9512385B2, “Disinfectant solution for nonionic soft contact lenses” (MENICON CO., LTD., priority 2012, dated 2016).

The conditions of the series: background art statement.

Take polylysine: the “IC50 value in cytotoxicity test relative to PHMB” value is listed as “about several hundredth part of that of PHMB”.
